Common to all, as to test: Broth microdilution MIC in CAMHB
What all share (assay type): cell-based

One experiment deals with A. baumannii ATCC 19606. The following applies: Acinetobacter baumannii, ATCC19606; MHB; read-out: Minimum Inhibitory Concentration, A. baumannii ATCC 19606. The method in brief: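 Lowest compound concentration with no visible growth after 16-20 h at 37 °C defines MIC. Plates of 2-fold serial dilutions in cation-adjusted Mueller Hinton broth received 2-8×10^5 CFU/mL of exponentially grown cells, per CLSI methods; panel spans reference, hyper-permeable and efflux-pump-deleted strains.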

Another experiment relates to E. coli 901C. The settings on record: Escherichia coli; E. coli 901C (hyper-permeable); MHB; read-out: Minimum Inhibitory Concentration, E. coli 901C. The method in brief: (§1)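 CLSI microdilution; CAMHB; inoculum 2-8×10^5 CFU/mL from 3-5 h 37° C culture; 2-fold compound series; 16-20 h, 37° C; MIC = lowest well without visible growth.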
For another experiment, the system named is E. coli AG100A. The following applies: Escherichia coli, read-out: Minimum Inhibitory Concentration, E. coli AG100A. Summed up: as §1
The subject of the next experiment is E. coli AG100. The following applies: Escherichia coli; E. coli AG100 (wild-type parent); MHB; read-out: Minimum Inhibitory Concentration, E. coli AG100. Summed up:
as §1

For the next experiment, the system named is E. coli ATCC 25922. The settings on record: Escherichia coli, ATCC25922; E. coli ATCC 25922; MHB; read-out: Minimum Inhibitory Concentration, E. coli 25922. The method in brief: as §1
The next experiment relates to E. coli D22. The following applies: Escherichia coli; E. coli D22 (hyper-permeable); MHB; read-out: Minimum Inhibitory Concentration, E. coli D22. Summed up: as §1
The subject of experiment [1] is K. pneumoniae 848844 producing SHV-11 and KPC-2. The following applies: Klebsiella pneumoniae, read-out: Minimum Inhibitory Concentration, K. pneumoniae 848844. The method in brief: as §1
The test system of experiment [2] is K. pneumoniae SI-117 producing VIM-1. The following applies: Klebsiella pneumoniae, read-out: Minimum Inhibitory Concentration, K. pneumoniae SI-117. The method in brief: as §1
Experiment [3] deals with K. pneumoniae UMM producing SHV-5 and KPC-2. The following applies: Klebsiella pneumoniae, read-out: Minimum Inhibitory Concentration, K. pneumoniae UMM. Summed up: as §1
The test system of experiment [4] is P. aeruginosa (ΔmexAB-oprM). The settings on record: Pseudomonas aeruginosa, read-out: Minimum Inhibitory Concentration, P. aeruginosa ΔmexAB-OprM. Summed up: as §1
A further experiment has as its system P. aeruginosa ATCC 27853. The following applies: Pseudomonas aeruginosa, ATCC27853; MHB; read-out: Minimum Inhibitory Concentration, P. aeruginosa ATCC 27853. Summed up: as §1
The next experiment concerns P. aeruginosa ATCC 35151. The settings on record: Pseudomonas aeruginosa, ATCC35151; MHB; hyper-permeable strain; read-out: Minimum Inhibitory Concentration, P. aeruginosa ATCC 35151. The method in brief: as §1

In brackets after ≈: the same amount, converted by molar mass. Where only a bound is given, the exact number is not on record here.

With `CCN1CCN(C(=O)NC(C(=O)N[C@H]2Cc3cccc(C(=O)O)c3OB2O)c2cccc(NC(=O)c3cccnc3)c2)C(=O)C1=O` (stereo partly drawn) [Example 97, (3R)-3-(2-(4-ethyl-2,3-dioxopiperazine-1-carboxamido)-2-(3-(nicotinamido)phenyl)acetamido)-2-hydroxy-3,4-dihydro-2H-benzo[e][1,2]oxaborinine-8-carboxylic acid], the MIC in the experiment with A. baumannii ATCC 19606 is greater than 128 µg/mL; in the experiment with E. coli 901C, 0.5 to 1 µg/mL (≈ 0.796 to 1.59 µM); in the experiment on E. coli AG100A it was 8 to 16 µg/mL (≈ 12.7 to 25.5 µM); with E. coli AG100 it was greater than 128 µg/mL; in the experiment with E. coli ATCC 25922 it was greater than 128 µg/mL; in the experiment with E. coli D22 it was 8 to 16 µg/mL (≈ 12.7 to 25.5 µM). For the same compound, the MIC in experiment [1] was greater than 128 µg/mL; in [2] it was greater than 128 µg/mL; in experiment [3], greater than 128 µg/mL; in [4] it was 32 to 64 µg/mL (≈ 50.9 to 102 µM); in the experiment with P. aeruginosa ATCC 27853, greater than 128 µg/mL; in the experiment with P. aeruginosa ATCC 35151 it was 8 to 16 µg/mL (≈ 12.7 to 25.5 µM).

For the compound `CCN1CCN(C(=O)NC(C(=O)N[C@H]2Cc3cccc(C(=O)O)c3OB2O)c2cccc(NS(N)(=O)=O)c2)C(=O)C1=O` (stereo partly drawn) [Example 98, (3R)-3-(2-(4-ethyl-2,3-dioxopiperazine-1-carboxamido)-2-(3-(sulfamoylamino)phenyl)acetamido)-2-hydroxy-3,4-dihydro-2H-benzo[e][1,2]oxaborinine-8-carboxylic acid], the MIC in the experiment with A. baumannii ATCC 19606 was greater than 128 µg/mL; in the experiment on E. coli 901C, less than 0.25 µg/mL; in the experiment with E. coli AG100A it was 0.5 to 1 µg/mL (≈ 0.83 to 1.66 µM); in the experiment with E. coli AG100, 8 to 16 µg/mL (≈ 13.3 to 26.6 µM); in the experiment on E. coli ATCC 25922, 8 to 16 µg/mL (≈ 13.3 to 26.6 µM); in the experiment with E. coli D22, 0.5 to 1 µg/mL (≈ 0.83 to 1.66 µM). Also, the MIC in experiment [1] was greater than 128 µg/mL; in experiment [2], 32 to 64 µg/mL (≈ 53.1 to 106 µM); in experiment [3], 32 to 64 µg/mL (≈ 53.1 to 106 µM); in [4], 8 to 16 µg/mL (≈ 13.3 to 26.6 µM); with P. aeruginosa ATCC 27853 it was greater than 128 µg/mL; in the experiment on P. aeruginosa ATCC 35151 it was 0.5 to 1 µg/mL (≈ 0.83 to 1.66 µM).

Turning to `CCN1CCN(C(=O)NC(C(=O)N[C@H]2Cc3cccc(C(=O)O)c3OB2O)c2cccc(S(N)(=O)=O)c2)C(=O)C1=O` (stereo partly drawn) [Example 99, (3R)-3-(2-(4-ethyl-2,3-dioxopiperazine-1-carboxamido)-2-(3-sulfamoylphenyl)acetamido)-2-hydroxy-3,4-dihydro-2H-benzo[e][1,2]oxaborinine-8-carboxylic acid], the MIC in the experiment with A. baumannii ATCC 19606 was greater than 128 µg/mL; in the experiment on E. coli 901C, less than 0.25 µg/mL; with E. coli AG100A it was 2 to 4 µg/mL (≈ 3.4 to 6.81 µM); with E. coli AG100 it was 32 to 64 µg/mL (≈ 54.5 to 109 µM); in the experiment with E. coli ATCC 25922, 32 to 64 µg/mL (≈ 54.5 to 109 µM); in the experiment with E. coli D22, 2 to 4 µg/mL (≈ 3.4 to 6.81 µM). Also, the MIC was 32 to 64 µg/mL (≈ 54.5 to 109 µM) in experiment [1]; 32 to 64 µg/mL (≈ 54.5 to 109 µM) in experiment [2]; 32 to 64 µg/mL (≈ 54.5 to 109 µM) in experiment [3]; 8 to 16 µg/mL (≈ 13.6 to 27.2 µM) in experiment [4]; greater than 128 µg/mL in the experiment with P. aeruginosa ATCC 27853; 2 to 4 µg/mL (≈ 3.4 to 6.81 µM) in the experiment on P. aeruginosa ATCC 35151.

The values are drawn from patent publication US20230114728A1 (Venatorx Pharmaceuticals, Inc., priority 2019, published 2023).
